Reference: US20100168102A9, “Amide Derivatives as Kinase Inhibitors” (Devgen NV, priority 2005, published 2010)

Columns and labels:
PKC epsilon = target: T1, PKC epsilon (Homo sapiens, UniProt Q02156); assay: Biochemical assay for PKC epsilon (fluorescence polarization, Protein Kinase C Assay Kit, Red); conditions: read-out: IC50 μM PKCε
T1 construct: purchased Invitrogen P2282
T1 sequence (Q02156 1-737): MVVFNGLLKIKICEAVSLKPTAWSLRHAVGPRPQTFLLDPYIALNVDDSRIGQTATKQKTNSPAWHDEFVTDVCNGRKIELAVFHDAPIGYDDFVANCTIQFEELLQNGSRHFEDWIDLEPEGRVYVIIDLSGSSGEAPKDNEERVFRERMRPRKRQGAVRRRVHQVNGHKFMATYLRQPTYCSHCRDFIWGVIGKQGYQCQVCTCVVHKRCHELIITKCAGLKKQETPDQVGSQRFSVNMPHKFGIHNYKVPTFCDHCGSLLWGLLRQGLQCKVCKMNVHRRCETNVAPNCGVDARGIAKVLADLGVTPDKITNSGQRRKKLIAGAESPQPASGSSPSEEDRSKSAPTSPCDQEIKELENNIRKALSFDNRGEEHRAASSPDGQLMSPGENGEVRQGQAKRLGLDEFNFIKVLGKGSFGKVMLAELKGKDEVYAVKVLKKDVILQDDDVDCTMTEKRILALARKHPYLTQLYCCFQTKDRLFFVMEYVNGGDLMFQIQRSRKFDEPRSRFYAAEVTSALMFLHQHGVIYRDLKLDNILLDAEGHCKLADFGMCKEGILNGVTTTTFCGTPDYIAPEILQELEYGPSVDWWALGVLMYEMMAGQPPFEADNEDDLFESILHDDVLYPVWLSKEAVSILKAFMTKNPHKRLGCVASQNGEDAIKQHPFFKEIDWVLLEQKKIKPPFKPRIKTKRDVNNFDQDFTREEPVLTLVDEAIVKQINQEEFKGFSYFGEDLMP
Procedure, shortened: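 Read-out was fluorescence-polarization competition between phosphorylated substrate and a rhodamine PKC tracer for an anti-phosphoserine antibody, added with EDTA stop after an 80 min room-temperature kinase reaction with ATP and protein substrate (Mg2+/Ca2+ buffer). Enzyme (10 ng/ml final) was preincubated with compound for 30 min.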

human ROCKα/ROCKII mix = target: T2, human ROCKα/ROCKII mix (Homo sapiens, UniProt O75116); assay: Biochemical assay for ROCK (fluorescence polarization, ROCK IMAP Kit)
T2 construct: purchased Upstate Biotechnology 14-451
T2 sequence (O75116 11-552 limits assumed): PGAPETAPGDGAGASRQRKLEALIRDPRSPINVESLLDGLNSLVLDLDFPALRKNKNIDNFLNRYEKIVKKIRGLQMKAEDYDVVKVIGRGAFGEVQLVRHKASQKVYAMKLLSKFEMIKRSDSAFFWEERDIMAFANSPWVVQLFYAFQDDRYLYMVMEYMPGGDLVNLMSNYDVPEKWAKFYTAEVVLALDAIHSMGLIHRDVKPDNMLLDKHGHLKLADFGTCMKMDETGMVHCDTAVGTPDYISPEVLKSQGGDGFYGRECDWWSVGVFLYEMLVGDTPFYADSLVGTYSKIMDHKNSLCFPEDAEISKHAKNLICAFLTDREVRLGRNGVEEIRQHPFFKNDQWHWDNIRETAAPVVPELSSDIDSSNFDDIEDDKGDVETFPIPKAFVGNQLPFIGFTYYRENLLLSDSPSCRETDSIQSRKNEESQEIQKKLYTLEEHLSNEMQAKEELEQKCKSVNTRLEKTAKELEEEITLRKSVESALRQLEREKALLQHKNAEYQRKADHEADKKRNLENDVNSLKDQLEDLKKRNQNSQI

SMILES	IC50 (PKC epsilon) [µM]	IC50 (human ROCKα/ROCKII mix) [µM]
NC(c1ccc(C(=O)Nc2ccncc2)cc1)C1CCCN1C(=O)C1(c2cccc(F)c2)CCCC1 (centres unmarked) [Compound 570, 4-(Amino-{1-[1-(3-fluoro-phenyl)-cyclopentanecarbonyl]-pyrrolidin-2-yl}-methyl)-N-pyridin-4-yl-benzamide]	0.5 to 5	0.5 to 5
CC(C)(C(=O)N1CCCC1C(N)c1ccc(C(=O)Nc2ccncc2)cc1)c1ccc(F)cc1 (centres unmarked) [Compound 573, 4-(Amino-{1-[2-(4-fluoro-phenyl)-2-methyl-propionyl]-pyrrolidin-2-yl}-methyl)-N-pyridin-4-yl-benzamide]	0.5 to 5	0.5 to 5
NC(c1ccc(C(=O)Nc2ccncc2)cc1)C1CCCN1C(=O)C1(c2ccc(F)cc2)CC1 (centres unmarked) [Compound 574, 4-(Amino-{1-[1-(4-fluoro-phenyl)-cyclopropanecarbonyl]-pyrrolidin-2-yl}-methyl)-N-pyridin-4-yl-benzamide]	0.5 to 5	0.5 to 5
NC(c1ccc(C(=O)Nc2ccncc2)cc1)C1CCCN1C(=O)C1(c2ccc(F)cc2)CCC1 (centres unmarked) [Compound 575, 4-(Amino-{1-[1-(4-fluoro-phenyl)-cyclobutanecarbonyl]-pyrrolidin-2-yl}-methyl)-N-pyridin-4-yl-benzamide]	0.5 to 5	0.5 to 5
NC(c1ccc(C(=O)Nc2ccncc2)cc1)C1CCCN1C(=O)C1(c2ccc(F)cc2)CCCC1 (centres unmarked) [Compound 576, 4-(Amino-{1-[1-(4-fluoro-phenyl)-cyclopentanecarbonyl]-pyrrolidin-2-yl}-methyl)-N-pyridin-4-yl-benzamide]	0.5 to 5	0.5 to 5
NC(c1ccc(C(=O)Nc2ccncc2)cc1)C1CCCN1C(=O)C1(c2ccc(F)c(F)c2)CC1 (centres unmarked) [Compound 587, 4-(Amino-{1-[1-(3,4-difluoro-phenyl)-cyclopropanecarbonyl]-pyrrolidin-2-yl}-methyl)-N-pyridin-4-yl-benzamide]	0.5 to 5	0.5 to 5
NC(c1ccc(C(=O)Nc2ccncc2)cc1)C1CCCN1C(=O)C1(c2ccc(F)c(F)c2)CCC1 (centres unmarked) [Compound 588, 4-(Amino-{1-[1-(3,4-difluoro-phenyl)-cyclobutanecarbonyl]-pyrrolidin-2-yl}-methyl)-N-pyridin-4-yl-benzamide]	0.5 to 5	0.5 to 5
NC(c1ccc(C(=O)Nc2ccncc2)cc1)C1CCCN1C(=O)C1(c2ccc(F)c(F)c2)CCCC1 (centres unmarked) [Compound 589, 4-(Amino-{1-[1-(3,4-difluoro-phenyl)-cyclopentanecarbonyl]-pyrrolidin-2-yl}-methyl)-N-pyridin-4-yl-benzamide]	0.5 to 5	0.5 to 5
CC(C)(C(=O)N1CCCC1C(N)c1ccc(C(=O)Nc2ccncc2)cc1)c1ccc(Cl)c(Cl)c1 (centres unmarked) [Compound 593, 4-(Amino-{1-[2-(3,4-dichloro-phenyl)-2-methyl-propionyl]-pyrrolidin-2-yl}-methyl)-N-pyridin-4-yl-benzamide]	5 to 50	0.5 to 5
NC(c1ccc(C(=O)Nc2ccncc2)cc1)C1CCCN1C(=O)C1(c2ccc(Cl)c(Cl)c2)CC1 (centres unmarked) [Compound 594, 4-(Amino-{1-[1-(3,4-dichloro-phenyl)-cyclopropanecarbonyl]-pyrrolidin-2-yl}-methyl)-N-pyridin-4-yl-benzamide]	0.5 to 5	0.5 to 5
NC(c1ccc(C(=O)Nc2ccncc2)cc1)C1CCCN1C(=O)C1(c2ccc(Cl)c(Cl)c2)CCC1 (centres unmarked) [Compound 595, 4-(Amino-{1-[1-(3,4-dichloro-phenyl)-cyclobutanecarbonyl]-pyrrolidin-2-yl}-methyl)-N-pyridin-4-yl-benzamide]	0.5 to 5	0.5 to 5
NC(c1ccc(C(=O)Nc2ccncc2)cc1)C1CCCN1C(=O)C1(c2ccc(Cl)cc2Cl)CC1 (centres unmarked) [Compound 596, 4-(Amino-{1-[1-(2,4-dichloro-phenyl)-cyclopropanecarbonyl]-pyrrolidin-2-yl}-methyl)-N-pyridin-4-yl-benzamide]	5 to 50	0.5 to 5

Second part, the compound after the results:

IC50 (PKC epsilon) [µM]	IC50 (human ROCKα/ROCKII mix) [µM]	SMILES
5 to 50	0.5 to 5	COc1ccc(CC(=O)N2CCCC2C(N)c2ccc(C(=O)Nc3ccncc3)cc2)cc1F (centres unmarked) [Compound 571, 4-(Amino-{1-[2-(3-fluoro-4-methoxy-phenyl)-acetyl]-pyrrolidin-2-yl}-methyl)-N-pyridin-4-yl-benzamide]
5 to 50	0.5 to 5	NC(c1ccc(C(=O)Nc2ccncc2)cc1)C1CCCN1C(=O)Cc1ccc(F)cc1 (centres unmarked) [Compound 572, 4-(Amino-{1-[2-(4-fluoro-phenyl)-acetyl]-pyrrolidin-2-yl}-methyl)-N-pyridin-4-yl-benzamide]
0.5 to 5	0.5 to 5	NC(c1ccc(C(=O)Nc2ccncc2)cc1)C1CCCN1C(=O)Cc1cccc(F)c1F (centres unmarked) [Compound 578, 4-(Amino-{1-[2-(2,3-difluoro-phenyl)-acetyl]-pyrrolidin-2-yl}-methyl)-N-pyridin-4-yl-benzamide]
5 to 50	0.5 to 5	NC(c1ccc(C(=O)Nc2ccncc2)cc1)C1CCCN1C(=O)Cc1cc(F)ccc1F (centres unmarked) [Compound 579, 4-(Amino-{1-[2-(2,5-difluoro-phenyl)-acetyl]-pyrrolidin-2-yl}-methyl)-N-pyridin-4-yl-benzamide]
0.5 to 5	0.05 to 0.5	NC(c1ccc(C(=O)Nc2ccncc2)cc1)C1CCCN1C(=O)Cc1ccc(F)cc1F (centres unmarked) [Compound 580, 4-(Amino-{1-[2-(2,4-difluoro-phenyl)-acetyl]-pyrrolidin-2-yl}-methyl)-N-pyridin-4-yl-benzamide]
0.5 to 5	0.5 to 5	NC(c1ccc(C(=O)Nc2ccncc2)cc1)C1CCCN1C(=O)C1(c2ccc(F)cc2F)CC1 (centres unmarked) [Compound 582, 4-(Amino-{1-[1-(2,4-difluoro-phenyl)-cyclopropanecarbonyl]-pyrrolidin-2-yl}-methyl)-N-pyridin-4-yl-benzamide]
5 to 50	0.5 to 5	NC(c1ccc(C(=O)Nc2ccncc2)cc1)C1CCCN1C(=O)Cc1cc(F)cc(F)c1 (centres unmarked) [Compound 583, 4-(Amino-{1-[2-(3,5-difluoro-phenyl)-acetyl]-pyrrolidin-2-yl}-methyl)-N-pyridin-4-yl-benzamide]
5 to 50	0.5 to 5	NC(c1ccc(C(=O)Nc2ccncc2)cc1)C1CCCN1C(=O)Cc1c(F)cccc1F (centres unmarked) [Compound 584, 4-(Amino-{1-[2-(2,6-difluoro-phenyl)-acetyl]-pyrrolidin-2-yl}-methyl)-N-pyridin-4-yl-benzamide]
5 to 50	0.5 to 5	NC(c1ccc(C(=O)Nc2ccncc2)cc1)C1CCCN1C(=O)Cc1c(Cl)cccc1Cl (centres unmarked) [Compound 590, 4-(Amino-{1-[2-(2,6-dichloro-phenyl)-acetyl]-pyrrolidin-2-yl}-methyl)-N-pyridin-4-yl-benzamide]
5 to 50	0.5 to 5	NC(c1ccc(C(=O)Nc2ccncc2)cc1)C1CCCN1C(=O)Cc1ccc(Cl)cc1Cl (centres unmarked) [Compound 591, 4-(Amino-{1-[2-(2,4-dichloro-phenyl)-acetyl]-pyrrolidin-2-yl}-methyl)-N-pyridin-4-yl-benzamide]
0.5 to 5	0.5 to 5	NC(c1ccc(C(=O)Nc2ccncc2)cc1)C1CCCN1C(=O)Cc1ccc(Cl)c(Cl)c1 (centres unmarked) [Compound 592, 4-(Amino-{1-[2-(3,4-dichloro-phenyl)-acetyl]-pyrrolidin-2-yl}-methyl)-N-pyridin-4-yl-benzamide]
5 to 50	0.5 to 5	NC(c1ccc(C(=O)Nc2ccncc2)cc1)C1CCCN1C(=O)Cc1c(F)cccc1Cl (centres unmarked) [Compound 597, 4-(Amino-{1-[2-(2-chloro-6-fluoro-phenyl)-acetyl]-pyrrolidin-2-yl}-methyl)-N-pyridin-4-yl-benzamide]
5 to 50	0.5 to 5	NC(c1ccc(C(=O)Nc2ccncc2)cc1)C1CCCN1C(=O)Cc1ccc(Cl)cc1F (centres unmarked) [Compound 598, 4-(Amino-{1-[2-(4-chloro-2-fluoro-phenyl)-acetyl]-pyrrolidin-2-yl}-methyl)-N-pyridin-4-yl-benzamide]
0.5 to 5	0.5 to 5	NC(c1ccc(C(=O)Nc2ccncc2)cc1)C1CCCN1C(=O)Cc1ccc(F)cc1Cl (centres unmarked) [Compound 599, 4-(Amino-{1-[2-(2-chloro-4-fluoro-phenyl)-acetyl]-pyrrolidin-2-yl}-methyl)-N-pyridin-4-yl-benzamide]
0.5 to 5	0.5 to 5	NC(c1ccc(C(=O)Nc2ccncc2)cc1)C1CCCN1C(=O)C1(c2ccc(F)cc2Cl)CC1 (centres unmarked) [Compound 600, 4-(Amino-{1-[1-(2-chloro-4-fluoro-phenyl)-cyclopropanecarbonyl]-pyrrolidin-2-yl}-methyl)-N-pyridin-4-yl-benzamide]
5 to 50	0.5 to 5	NC(c1ccc(C(=O)Nc2ccncc2)cc1)C1CCCN1C(=O)Cc1cccc(Cl)c1F (centres unmarked) [Compound 602, 4-(Amino-{1-[2-(3-chloro-2-fluoro-phenyl)-acetyl]-pyrrolidin-2-yl}-methyl)-N-pyridin-4-yl-benzamide]
